In ChEMBL document CHEMBL1122712, “[(E)-1-[123I]Iodo-1-penten-5-yl]triphenylphosphonium iodide: convenient preparation of a potentially useful myocardial perfusion agent” (J Med Chem, 1984):
Where “and” joins values, the source holds several entries; their conditions need not be identical. Equal entries are not always repeated.

Experiments:
Assay type in all cases: ADME, organism-based
Rattus norvegicus [1] = assay: Distribution of radioactivity in the female heart rat tissues after intravenous administration after 3 days was determined; settings: in vivo, 72 h
Rattus norvegicus [2] = assay: Distribution of radioactivity in the female liver rat tissues after intravenous administration after 30 min was determined; settings: in vivo, 0.5 h
Rattus norvegicus [3] = assay: Distribution of radioactivity in the female rat blood tissues after intravenous administration after 1 day was determined; settings: in vivo, 24 h
Rattus norvegicus [4] = assay: Distribution of radioactivity in the female rat blood tissues after intravenous administration after 30 min was determined; settings: in vivo, 0.5 h
Rattus norvegicus [5] = assay: Distribution of radioactivity in the female rat blood tissues after intravenous administration after 3 days was determined; settings: in vivo, 72 h
Rattus norvegicus [6] = assay: Distribution of radioactivity in the female rat blood tissues after intravenous administration after 3h was determined; settings: in vivo
Rattus norvegicus [7] = assay: Distribution of radioactivity in the female rat blood tissues after intravenous administration after 5 min was determined; settings: in vivo
Rattus norvegicus [8] = assay: Distribution of radioactivity in the female rat liver tissues after intravenous administration after 30 min was determined; settings: in vivo, 0.5 h
Rattus norvegicus [9] = assay: Distribution of radioactivity in the female rat liver tissues after intravenous administration after 3 days was determined; settings: in vivo, 72 h
Rattus norvegicus [10] = assay: Distribution of radioactivity in the female rat liver tissues after intravenous administration after 3h was determined; settings: in vivo
Rattus norvegicus [11] = assay: Distribution of radioactivity in the female rat liver tissues after intravenous administration after 60 min was determined; settings: in vivo, 1 h
Rattus norvegicus [12] = assay: Distribution of radioactivity in the female rat lung tissues after intravenous administration after 1 day was determined; settings: in vivo, 24 h
Rattus norvegicus [13] = assay: Distribution of radioactivity in the female rat lung tissues after intravenous administration after 30 min was determined; settings: in vivo, 0.5 h
Rattus norvegicus [14] = assay: Distribution of radioactivity in the female rat lung tissues after intravenous administration after 3 days was determined; settings: in vivo, 72 h
Rattus norvegicus [15] = assay: Distribution of radioactivity in the female rat lung tissues after intravenous administration after 3h was determined; settings: in vivo
Rattus norvegicus [16] = assay: Distribution of radioactivity in the female rat lung tissues after intravenous administration after 60 min was determined; settings: in vivo, 1 h
Rattus norvegicus [17] = assay: Distribution of radioactivity in the female rat kidney tissues after intravenous administration after 30 min was determined; settings: in vivo, 0.5 h
Rattus norvegicus [18] = assay: Distribution of radioactivity in the female rat kidney tissues after intravenous administration after 3 days was determined; settings: in vivo, 72 h
Rattus norvegicus [19] = assay: Distribution of radioactivity in the female rat kidney tissues after intravenous administration after 3h was determined; settings: in vivo
Rattus norvegicus [20] = assay: Distribution of radioactivity in the female rat kidney tissues after intravenous administration after 5 min was determined; settings: in vivo
Rattus norvegicus [21] = assay: Distribution of radioactivity in the female rat kidney tissues after intravenous administration after 60 min was determined; settings: in vivo, 1 h
Rattus norvegicus [22] = assay: Distribution of radioactivity in the female rat liver tissues after intravenous administration after 1 day was determined; settings: in vivo, 24 h
Rattus norvegicus [23] = assay: Distribution of radioactivity in the female rat blood tissues after intravenous administration after 60 min was determined; settings: in vivo, 1 h
Rattus norvegicus [24] = assay: Distribution of radioactivity in the female rat heart tissues after intravenous administration after 1 day was determined; settings: in vivo, 24 h
Rattus norvegicus [25] = assay: Distribution of radioactivity in the female rat heart tissues after intravenous administration after 30 min was determined; settings: in vivo, 0.5 h
Rattus norvegicus [26] = assay: Distribution of radioactivity in the female rat heart tissues after intravenous administration after 3 days was determined; settings: in vivo, 72 h
Rattus norvegicus [27] = assay: Distribution of radioactivity in the female rat heart tissues after intravenous administration after 3h was determined; settings: in vivo
Rattus norvegicus [28] = assay: Distribution of radioactivity in the female rat heart tissues after intravenous administration after 5 min was determined; settings: in vivo
Rattus norvegicus [29] = assay: Distribution of radioactivity in the female rat heart tissues after intravenous administration after 60 min was determined; settings: in vivo, 1 h
Rattus norvegicus [30] = assay: Distribution of radioactivity in the female rat kidney tissues after intravenous administration after 1 day was determined; settings: in vivo, 24 h
Rattus norvegicus [31] = assay: Distribution of radioactivity in the female rat lung tissues after intravenous administration after 5 min was determined; settings: in vivo

## I/C=C/CCC[P+](c1ccccc1)(c1ccccc1)c1ccccc1.[I-]
Rattus norvegicus [1]
  Activity: 0.64%
Rattus norvegicus [2]
  Activity: 5.59%
Rattus norvegicus [3]
  Activity: 0.2% and 0.01%
Rattus norvegicus [4]
  Activity: 1.59% and 0.15%
Rattus norvegicus [5]
  Activity: 0.093% and 0.009%
Rattus norvegicus [6]
  Activity: 0.96% and 0.08%
Rattus norvegicus [7]
  Activity: 1.58% and 0.14%
Rattus norvegicus [8]
  Activity: 0.75%
Rattus norvegicus [9]
  Activity: 0.13% and 0.019%
Rattus norvegicus [10]
  Activity: 0.74% and 0.09%
Rattus norvegicus [11]
  Activity: 2.64% and 0.25%
Rattus norvegicus [12]
  Activity: 0.19% and 0.17%
Rattus norvegicus [13]
  Activity: 0.79% and 0.64%
Rattus norvegicus [14]
  Activity: 0.102% and 0.91%
Rattus norvegicus [15]
  Activity: 0.61% and 0.49%
Rattus norvegicus [16]
  Activity: 0.75% and 0.65%
Rattus norvegicus [17]
  Activity: 13.11% and 8.91%
Rattus norvegicus [18]
  Activity: 0.22% and 0.15%
Rattus norvegicus [19]
  Activity: 4.38% and 2.75%
Rattus norvegicus [20]
  Activity: 13.72% and 7.08%
Rattus norvegicus [21]
  Activity: 7.95% and 5.06%
Rattus norvegicus [22]
  Activity: 0.18% and 0.02%
Rattus norvegicus [23]
  Activity: 1.14% and 0.11%
Rattus norvegicus [24]
  Activity: 1.18% and 1.58%
Rattus norvegicus [25]
  Activity: 1.6% and 2.31%
Rattus norvegicus [26]
  Activity: 1%
Rattus norvegicus [27]
  Activity: 1.54% and 2.21%
Rattus norvegicus [28]
  Activity: 1.49% and 2.38%
Rattus norvegicus [29]
  Activity: 1.83% and 2.59%
Rattus norvegicus [30]
  Activity: 0.79% and 0.46%
Rattus norvegicus [31]
  Activity: 0.89% and 0.75%
